Reference: paper PMC2893567 (Macromolecular bioscience, 2010)

Target: cholera toxin B5 subunit (CT B5) (Vibrio cholerae serotype O1, UniProt P01556)
Assay: biochemical
Format: binding

Chain of cholera toxin B5 subunit (CT B5) (P01556 22-124 limits assumed): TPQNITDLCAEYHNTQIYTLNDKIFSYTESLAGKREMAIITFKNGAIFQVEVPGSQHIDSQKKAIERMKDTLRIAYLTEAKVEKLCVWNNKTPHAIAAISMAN

| Molecule | Improvement over galactose | IC50 (IC50 (saccharide concentration)) [mM] | Non-specific binding of unmodified peptide |
| --- | --- | --- | --- |
| O=C[C@H](O)[C@@H](O)[C@@H](O)[C@H](O)CO [Galactose] | 1 | 30 to 45 | – |
| XGAGAGPSGAGAGPSGAGAGPSGAGAGPSGAGAGPXGGGG [35-RCG-2] | – | – | less than 20% |
| XGAKAKPKGAKAKPKGAKAKPKGAKAKPKGAKAKPXGGGG [35-RCK-2] | – | – | less than 20% |
